“Also recorded” adds a separate entry of the source. Peptide text beside a SMILES is read from it.
Key:
NMDAR [1] = conditions: cited from earlier work; for side effects: human clinical studies; for Hamilton Depression Rating Score: patients suffering with refractory depression
healthy young adults [2] = assay: fMRI (BOLD) during item category association task, Example 1; assay type: in vivo, humans; conditions: IV-injection of 5 mg
Method: GLYX-13 was used to investigate whether this compound changed functional activation in hippocampal and related learning regions healthy young adults.
Twenty-four healthy individuals underwent functional magnetic resonance imaging (fMRI) after randomization to IV-injection of 5 mg of GLYX-13 (n=12) or placebo (n=12). Groups were matched on demographic factors, estimated IQ, and dose volume. While undergoing scanning, subjects performed an item category association task in which they learned over repeated cycles which of two categories a series of numbers were assigned. Change in blood-oxygen level dependent (BOLD) activity was measured during correctly performed trials, and differences in activation between groups were compared across learning cycles.

healthy young adults [3] = assay: fMRI (BOLD) during item category association task, Example 2 (randomized, single-blind, parallel group); assay type: in vivo, humans; conditions: single IV 5 mg/kg
Source text: We investigated whether a single IV administration of GLYX-13 compared to placebo changed functional activation among healthy young adults performing a learning and memory task while undergoing fMRI.
The inclusion criteria for adult subjects participating in the study were as follows (i) 18-40 years of age; (ii) estimated IQ within what is considered to be the normal range (80-120); and (iii) no personal medical, neurologic, or psychiatric history, or reported history of psychiatric illness among first degree relatives.
After initial (Visit 1), patients were randomized to either single IV administration of GLYX-13 (5 mg/kg) or placebo on subsequent visit (Visit 2). fMRI studies started within 20 minutes post-infusion. Subjects returned approximately one week after Visit 2 to complete behavioral tasks in scanner and assess any adverse effects.
Item Category Association Task (See, e.g., Onur O A, Schlaepfer T E, Kukolja J, Bauer A, Jeung H, Patin A, Otte D-M, Shah N J, Maier W, Kendrick K M, Fink G R, Hurleman R (2010).
The N-methyl-D-aspartate receptor co-agonist D-Cycloserine facilitates declarative learning and hippocampal activity in humans. Biol. Psychiatry, 67, 1205). Subjects were asked to learn arbitrary group membership (A or B) of 3-digit numbers. Visual feedback was provided immediately following choice (button press) to indicate correct item category association. There were eight category memberships to be learned, which were presented over eight cycles (i.e., 7 repetitions) for a total of 64 trials per run; three sets of learning runs (each with different 3-digit number sets. See FIG. 3.
3T TIM Trio system (Siemens Medical Systems) with 32 channel coil. […]

NMDAR [4] = conditions: in vivo; cited from earlier work

SMILES	side effects (NMDAR [1])	Hamilton Depression Rating Score (NMDAR [1])	regions in which Placebo demonstrated greater activation compared to GLYX-13 (healthy young adults [2])	BOLD activation over learning cycles compared to Placebo (healthy young adults [2]; n=12 per group, correctly performed trials, hippocampus, parahippocampal gyrus, amygdala, superior temporal, middle frontal, inferior frontal gyri)	task accuracy over successive cycles (healthy young adults [2]; both groups (GLYX-13 and placebo))	number of identified regions with significant group by cycle interaction effects on extracted mean % signal change (healthy young adults [3]; FIGS. 7A-7F)	behavioral task performance (learning effect across cycle) (healthy young adults [3]; compared with Placebo, FIG. 5)	BOLD activation / extracted mean % signal change vs. Placebo (healthy young adults [3]; correct trials, FIGS. 7A-7F, 5 mg/kg)	antidepressant activity (NMDAR [4])	nootropic, neuroprotective, antinociceptive and cognitive activity (NMDAR [4])	psychotomimetic side effects (NMDAR [4])
C[C@@H]([C@@H](O)c1ccc(O)cc1)N1CCC(O)(c2ccccc2)CC1 [CPC-101.606]	severe	significant reductions	–	–	–	–	–	–	–	–	–
C[C@@H](O)[C@H](N)C(=O)N1CCC[C@H]1C(=O)N1CCC[C@H]1C(=O)N[C@H](C(N)=O)[C@@H](C)O [GLYX-13, L-threonyl-L-prolyl-L-prolyl-L-threonine amide] (H-TPPT-NH2)	–	–	no regions	enhanced activation over learning cycles in several learning and memory regions	increased task accuracy over successive cycles	six	robust and comparable learning effect across cycle	enhanced activation; also recorded: enhanced BOLD signal change	rapid-acting, robust, and sustained antidepressant activity	exhibits nootropic, neuroprotective and antinociceptive activity, and enhances learning, memory and cognition in vivo	lack the pyschotomimetic side effects
CNC1(c2ccccc2Cl)CCCCC1=O (stereo not shown) [ketamine]	severe	significant reductions	–	–	–	–	–	–	–	–	–

— US20160345855A1, “METHODS OF TREATING BRAIN DISORDERS OR IDENTIFYING BIOMARKERS RELATED THERETO” (NORTHWESTERN UNIVERSITY, priority 2013, published 2016)
